In PubChem BioAssay (NCI):
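Step 1: Grow cells in 96-well plates. Step 2: Expose to compound for 48 hours at 5 concentrations. Step 3: Interpolate endpoints linearly; if unreached, use highest concentration. The concentration for full growth arrest is given as TGI.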

Key:
Test in all cases: NCI anticancer screen, dose series, 48 h
HCT-116 colon = test system: HCT-116 colon
MCF7 breast = test system: MCF7 breast
MOLT-4 leukemia = test system: MOLT-4 leukemia
NCI-H226 lung = test system: NCI-H226 lung
OVCAR-8 ovarian = test system: OVCAR-8 ovarian
SK-MEL-28 melanoma = test system: SK-MEL-28 melanoma
SN12C renal = test system: SN12C renal
SNB-19 CNS = test system: SNB-19 CNS
SNB-75 CNS = test system: SNB-75 CNS
UACC-257 melanoma = test system: UACC-257 melanoma
UACC-62 melanoma = test system: UACC-62 melanoma
UO-31 renal = test system: UO-31 renal
NCI-H522 lung = test system: NCI-H522 lung

## CC(C(O)c1ccccc1)N(C)/N=N/c1nc2c([nH]1)c(=O)n(C)c(=O)n2C (stereo unspecified)
HCT-116 colon
  TGI: > 100 µM
MCF7 breast
  TGI: > 100 µM
MOLT-4 leukemia
  TGI: > 100 µM
NCI-H226 lung
  TGI: > 100 µM
OVCAR-8 ovarian
  TGI: > 100 µM
SK-MEL-28 melanoma
  TGI: > 100 µM
SN12C renal
  TGI: > 100 µM
SNB-19 CNS
  TGI: > 100 µM
SNB-75 CNS
  TGI: > 100 µM
UACC-257 melanoma
  TGI: > 100 µM
UACC-62 melanoma
  TGI: > 100 µM
UO-31 renal
  TGI: > 100 µM

## Nc1ccccc1C(=O)NNC(=O)c1ccccc1N
HCT-116 colon
  TGI: > 100 µM
MCF7 breast
  TGI: > 100 µM
MOLT-4 leukemia
  TGI: > 100 µM
NCI-H226 lung
  TGI: > 100 µM
NCI-H522 lung
  TGI: > 100 µM
OVCAR-8 ovarian
  TGI: > 100 µM
SK-MEL-28 melanoma
  TGI: > 100 µM
SN12C renal
  TGI: > 100 µM
SNB-19 CNS
  TGI: > 100 µM
SNB-75 CNS
  TGI: > 100 µM
UACC-257 melanoma
  TGI: > 100 µM
UACC-62 melanoma
  TGI: > 100 µM
UO-31 renal
  TGI: > 100 µM

## [N-]=[N+]=Nc1cc(=O)n(-c2ccccc2)c(=O)n1-c1ccccc1
HCT-116 colon
  TGI: > 100 µM
MCF7 breast
  TGI: > 100 µM
MOLT-4 leukemia
  TGI: > 100 µM
NCI-H226 lung
  TGI: > 100 µM
NCI-H522 lung
  TGI: > 100 µM
OVCAR-8 ovarian
  TGI: > 100 µM
SK-MEL-28 melanoma
  TGI: > 100 µM
SN12C renal
  TGI: > 100 µM
SNB-19 CNS
  TGI: > 100 µM
SNB-75 CNS
  TGI: > 100 µM
UACC-257 melanoma
  TGI: > 100 µM
UACC-62 melanoma
  TGI: > 100 µM
UO-31 renal
  TGI: > 100 µM

## c1ccc2c(c1)n1c(N3CCOCC3)[n+]3ccccc3c1c1c3cccc[n+]3c(N3CCOCC3)n21
HCT-116 colon
  TGI: > 100 µM
MCF7 breast
  TGI: > 100 µM
MOLT-4 leukemia
  TGI: > 100 µM
NCI-H226 lung
  TGI: > 100 µM
NCI-H522 lung
  TGI: > 100 µM
OVCAR-8 ovarian
  TGI: > 100 µM
SK-MEL-28 melanoma
  TGI: > 100 µM
SN12C renal
  TGI: > 100 µM
SNB-19 CNS
  TGI: > 100 µM
SNB-75 CNS
  TGI: > 100 µM
UACC-257 melanoma
  TGI: > 100 µM
UACC-62 melanoma
  TGI: > 100 µM

## C=C1[C@H](OCC(C)C)[C@@H](OCC(C)C)[C@@H](O)C(C)(C)/C=C/[C@H](C)C(=O)[C@@]2(O)C[C@H](C)[C@H](O)[C@@H]2[C@H]1OCC(C)C
HCT-116 colon
  TGI: > 7.5 µM
MCF7 breast
  TGI: > 7.5 µM
MOLT-4 leukemia
  TGI: > 7.5 µM
NCI-H522 lung
  TGI: > 7.5 µM
OVCAR-8 ovarian
  TGI: > 7.5 µM
SN12C renal
  TGI: > 7.5 µM
SNB-19 CNS
  TGI: > 7.5 µM
SNB-75 CNS
  TGI: > 7.5 µM
UACC-257 melanoma
  TGI: > 7.5 µM
UACC-62 melanoma
  TGI: > 7.5 µM
UO-31 renal
  TGI: > 7.5 µM

## CN=C1Nc2ccccc2C(=S)N2CSC[C@@H]12
HCT-116 colon
  TGI: > 100 µM
MCF7 breast
  TGI: > 100 µM
MOLT-4 leukemia
  TGI: > 100 µM
NCI-H522 lung
  TGI: > 100 µM
OVCAR-8 ovarian
  TGI: > 100 µM
SK-MEL-28 melanoma
  TGI: > 100 µM
SN12C renal
  TGI: > 100 µM
SNB-19 CNS
  TGI: > 100 µM
UACC-62 melanoma
  TGI: > 100 µM
UO-31 renal
  TGI: > 100 µM

## C=CCN1C(=O)N/C(=C\c2ccc(Cl)cc2)C1=O
HCT-116 colon
  TGI: > 100 µM
MCF7 breast
  TGI: > 100 µM
MOLT-4 leukemia
  TGI: > 100 µM
NCI-H226 lung
  TGI: > 100 µM
NCI-H522 lung
  TGI: > 100 µM
OVCAR-8 ovarian
  TGI: > 100 µM
SK-MEL-28 melanoma
  TGI: > 100 µM
SN12C renal
  TGI: > 100 µM
SNB-19 CNS
  TGI: > 100 µM
SNB-75 CNS
  TGI: > 100 µM
UACC-257 melanoma
  TGI: > 100 µM
UACC-62 melanoma
  TGI: > 100 µM

## COc1ccccc1NC(=S)Nc1cccc(C)n1
HCT-116 colon
  TGI: > 100 µM
MCF7 breast
  TGI: > 100 µM
MOLT-4 leukemia
  TGI: > 100 µM
NCI-H226 lung
  TGI: > 100 µM
NCI-H522 lung
  TGI: 45.9 µM
OVCAR-8 ovarian
  TGI: > 100 µM
SK-MEL-28 melanoma
  TGI: > 100 µM
SN12C renal
  TGI: > 100 µM
SNB-19 CNS
  TGI: > 100 µM
SNB-75 CNS
  TGI: 63.5 µM
UACC-257 melanoma
  TGI: > 100 µM
UACC-62 melanoma
  TGI: > 100 µM
UO-31 renal
  TGI: > 100 µM
